Experimental data taken from paper PMC7313459, “Insights into the Mn^2+ Binding Site in the Agmatinase-Like Protein (ALP): A Critical Enzyme for the Regulation of Agmatine Levels in Mammals” (International Journal of Molecular Sciences, 2020).

Molecular target: T1, central-ALP (Rattus norvegicus, UniProt A0A8I6ASI2)
T1 construct: gene Limch1
Assay: urea formation, colorimetric (alpha-isonitrosopropiophenone, […] nm)
Format: biochemical
Conditions: 5 mM MnCl2, 50 mM glycine-NaOH pH 9.0, 37 °C; not pre-heated

T1 sequence (A0A8I6ASI2 141-351): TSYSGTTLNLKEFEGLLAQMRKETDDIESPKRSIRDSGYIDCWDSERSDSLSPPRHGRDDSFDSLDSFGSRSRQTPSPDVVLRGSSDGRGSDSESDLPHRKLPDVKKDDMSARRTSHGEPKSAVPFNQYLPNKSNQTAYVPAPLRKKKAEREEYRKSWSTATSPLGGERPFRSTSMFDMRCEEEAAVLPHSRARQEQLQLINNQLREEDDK

- Km: 1200 ± 370 µM
Structure (SMILES): N=C(N)NCCCCN [agmatine, 1-amino-4-guanidinobutane]
